Data reported in patent US12012419B2, “Heterocyclic compound” (Takeda Pharmaceutical Company Limited, priority 2018, dated 2024).
pEC50: −log10 of the molar value.

Legend:
Rat PK test = format: in vivo; settings: plasma, male SD rats
Description: As the rat, 8-week-old male SD rats (Japan SLC, Inc.) were used. They were fed on a solid commercially available diet (CE-2, CLEA Japan, Inc.) and allowed to freely ingest tap water as the drinking water. An intravenous administration solution for the rats was prepared by weighing a test compound, dissolving same in dimethylacetamide (DMA) (Wako Pure Chemical Industries, Ltd.), adding the same volume of 1,3-butanediol (Wako Pure Chemical Industries, Ltd.) and mixing by stirring to give a DMA:1,3-butanediol (1:1, v/v) solution. An oral administration solution was prepared by weighing a test compound, pulverizing same in an agate mortar, and gradually adding 0.5 w/v % aqueous methylcellulose solution to give a suspension. For intravenous administration, the solution was administered into femoral vein of the rats at 0.1 mg/0.5 mL/kg (salt converted to free form). For oral administration, the suspension was administered to the rats at 1 mg/5 mL/kg (salt converted to free form). The cassette dosing method was used for the both administration routes, and the test compound was administered in the following manner.
Compound of Example 1 (Intravenous: 10 Compounds Cassette Administration, Oral: 5 Compounds Cassette Administration)
In the case of intravenous administration, blood samples were collected from the tail vein at 5, 10, 15, 30 min, 1, 2, 4, 8 hr after administration, an anticoagulation treatment with heparin sodium (Shimizu Pharmaceutical Co., Ltd.) was performed, and plasma was collected after centrifugation and subjected to the measurement of drug concentration. In the case of oral administration, blood samples were collected from the tail vein at 15, 30 min, 1, 2, 4, 8 hr after administration, an anticoagulation treatment with heparin sodium was performed, and plasma was collected after centrifugation and subjected to the measurement of drug concentration.
All drug concentrations were measured by LC-MS/MS analysis. […]

Male beagle dogs = assay: Experiment on gastrointestinal motility in dogs; format: in vivo, dog; settings: 0.03 mg/kg orally, 8 hr after administration, compared with the solvent administration group
Description: Experiment on Gastrointestinal Motility in Dogs
Male beagle dogs each equipped with four pressure transducers (one in the ileum and three in the large intestine) were used after an acclimation period for 15 days after surgery. The compound of Example 1 (0.03 mg/kg) was suspended in 0.5% methylcellulose solution and orally administered at a volume of 10 mL/kg. Only 0.5% methylcellulose was administered to a solvent administration group.
HAPC (abbreviation for high amplitude propagated contractions which mean strong contractions propagated from the oral side to the anal side of the large intestine during defecation. Intestinal contraction pattern observed during normal defecation.) at 8 hr after administration was counted using a telemeter for gastrointestinal motility (GTS-850, STARMEDICAL).

MDR1 = target: T1, MDR1 (Homo sapiens, UniProt P08183); assay: MDR1 membrane permeability test; format: in vitro ADME; settings: LLC-PK1, pH 7.4, 10 μmol/L test compound, Papp B to A / Papp A to B, read-out: Efflux ratio (ER)
T1 construct: expressed in transfected cells
Description: MDR1 Membrane Permeability Test
When MDR1 is expressed in excess in LLC-PK1 cell, which is a polar cell, MDR1 is localized in apical membrane (A), thus promoting transcellular transport from the basement membrane side (B) toward direction A. When a ratio to the transcellular transport in the opposite direction is taken and a ratio to a control cell in which a mock vector has been introduced is further taken, an efflux ratio of MDR1 to simple diffusion (corrected efflux ratio) is calculated. Similarly, when a brain/plasma concentration ratio in Mdr1(−/−) mouse is divided by a brain/plasma concentration ratio in wild-type mouse, an efflux ratio of Mdr1 to simple diffusion in blood-brain barrier (BBB) (Kp, brain ratio, higher value means lower central nervous system permeability) is calculated. […]
Transcellular transport was performed according to the report of Sugimoto et al. (Reference 3). […] After 1 hr, the sample was collected from the side opposite to the side where the drug solution was added, and the concentration of the test compound was measured by LC-MS/MS. […]
Papp, A to B and Papp, B to A (apparent permeability) were calculated from the formula (1), and the efflux ratio (ER) was calculated from the formula (2). […]

Male SD rats = assay: Rat defecation experiment; format: in vivo; settings: mean ± standard error
Description: Rat Defecation Experiment
Male SD rats (5-6 weeks old) were used after an acclimation period for about 1 week. A test drug (1 mg/kg or […]) was suspended in 0.5% methylcellulose solution and orally administered at a volume of 5 mL/kg, and the number of feces 2 hr later was counted. Only 0.5% methylcellulose was administered to a solvent administration group.

[1] = target: T2, human M1 receptor (hCHRM1) (Homo sapiens, UniProt P11229); assay: Measurement of M1 receptor positive allosteric modulator (M1PAM) activity; format: cell-based; settings: CHO-K1 cells stably expressing hCHRM1, in the presence of acetylcholine at EC20 concentration, IP1 readout
T2 construct: expressed in transfected cells
T2 sequence (P11229 1-460): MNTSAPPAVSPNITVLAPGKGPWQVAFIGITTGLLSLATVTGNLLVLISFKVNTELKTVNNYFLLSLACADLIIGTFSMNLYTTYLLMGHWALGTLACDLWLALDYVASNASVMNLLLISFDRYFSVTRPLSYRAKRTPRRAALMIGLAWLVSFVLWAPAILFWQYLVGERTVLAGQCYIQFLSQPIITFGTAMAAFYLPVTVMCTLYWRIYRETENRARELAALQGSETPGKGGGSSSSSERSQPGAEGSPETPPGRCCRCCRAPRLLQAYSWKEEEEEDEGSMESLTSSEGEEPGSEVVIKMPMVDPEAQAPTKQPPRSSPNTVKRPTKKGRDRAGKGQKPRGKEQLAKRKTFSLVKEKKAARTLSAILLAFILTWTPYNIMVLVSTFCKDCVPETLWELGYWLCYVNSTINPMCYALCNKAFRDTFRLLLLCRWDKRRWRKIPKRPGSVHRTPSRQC
Description: Measurement of M1 Receptor Positive Allosteric Modulator (M1PAM) Activity
The activity of a test compound in the presence of acetylcholine at an EC20 concentration affording about 20% action of the maximum activity was measured as PAM activity. The method therefor is as follows. To a 384-well white plate (Greiner) was added 4 μL of the test compound diluted with IP1 Stimulation buffer (CisBio) containing 0.1% fatty acid-free BSA containing 80 nM acetylcholine. Freeze stock of CHO-K1 cells stably expressing human M1 receptor (hCHRM1) was prepared with IP1 Stimulation buffer (CisBio) containing 0.1% fatty acid-free BSA, 4 μL thereof was added (10,000 cells/well) and the mixture was cultured in a 5% CO2 incubator at 37° C. for 1 hr. 4 μL of a solution (CisBio) containing IP1-d2 and Anti-IP1-cryptate Tb conjugate was added, the mixture was incubated at room temperature for 1 hr, and the time-resolved fluorescence signal was measured on an Envision plate reader (PerkinElmer). The activity (%) of the test compound was calculated by defining the value when acetylcholine was added at the final concentration of 20 μM as 100% and the value when DMSO was added instead of the test compound under acetylcholine-free conditions as 0%, and the EC50 value was calculated as a value of 50% of the concentration dependence curve of the test compound.

T1 sequence (P08183 whole entry): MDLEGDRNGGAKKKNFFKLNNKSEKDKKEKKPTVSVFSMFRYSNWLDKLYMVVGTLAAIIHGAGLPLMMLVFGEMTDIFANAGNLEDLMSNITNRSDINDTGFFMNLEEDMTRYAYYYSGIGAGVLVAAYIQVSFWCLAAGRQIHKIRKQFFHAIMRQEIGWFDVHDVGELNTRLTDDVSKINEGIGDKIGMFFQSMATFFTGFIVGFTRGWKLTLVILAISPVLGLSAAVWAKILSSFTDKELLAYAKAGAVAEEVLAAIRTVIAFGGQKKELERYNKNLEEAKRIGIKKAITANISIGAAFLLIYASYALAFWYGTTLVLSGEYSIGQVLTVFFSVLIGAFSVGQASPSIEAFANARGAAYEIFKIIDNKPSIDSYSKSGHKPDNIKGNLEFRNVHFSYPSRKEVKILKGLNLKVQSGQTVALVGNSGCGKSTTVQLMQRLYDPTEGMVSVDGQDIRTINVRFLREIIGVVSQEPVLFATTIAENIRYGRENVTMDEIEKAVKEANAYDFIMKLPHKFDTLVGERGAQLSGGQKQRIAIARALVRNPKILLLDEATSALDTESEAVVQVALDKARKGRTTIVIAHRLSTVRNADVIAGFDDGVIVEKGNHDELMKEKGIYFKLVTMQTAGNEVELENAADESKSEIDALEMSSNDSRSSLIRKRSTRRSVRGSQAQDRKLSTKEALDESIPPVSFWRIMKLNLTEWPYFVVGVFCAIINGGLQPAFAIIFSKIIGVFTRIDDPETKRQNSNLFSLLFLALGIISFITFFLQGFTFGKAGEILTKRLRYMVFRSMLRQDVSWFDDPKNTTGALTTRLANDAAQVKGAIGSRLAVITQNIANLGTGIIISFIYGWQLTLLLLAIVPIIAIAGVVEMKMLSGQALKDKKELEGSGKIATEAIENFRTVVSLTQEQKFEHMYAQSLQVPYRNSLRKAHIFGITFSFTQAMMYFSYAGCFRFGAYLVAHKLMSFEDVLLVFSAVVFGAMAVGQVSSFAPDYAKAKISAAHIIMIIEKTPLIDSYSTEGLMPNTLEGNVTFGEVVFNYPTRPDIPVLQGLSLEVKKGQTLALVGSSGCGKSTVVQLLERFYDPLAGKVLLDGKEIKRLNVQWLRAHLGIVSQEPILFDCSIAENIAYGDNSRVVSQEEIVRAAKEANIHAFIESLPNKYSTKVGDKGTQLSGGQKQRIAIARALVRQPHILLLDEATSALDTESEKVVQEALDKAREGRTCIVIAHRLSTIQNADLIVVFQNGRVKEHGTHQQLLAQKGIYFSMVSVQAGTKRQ

COCCNC(=O)c1ccc(Cc2cc3c(c4c2OCC4)OCN([C@H]2CCOC[C@@H]2O)C3=O)cc1F [Example 1, 1,5-anhydro-2,3-dideoxy-3-[6-({3-fluoro-4-[(2-methoxyethyl)carbamoyl]phenyl}methyl)-4-oxo-8,9-dihydro-2H-furo[2,3-h][1,3]benzoxazin-3(4H)-yl]-L-threo-pentitol]
MRT (Rat PK test; intravenous 0.1 mg/kg, 10 compounds cassette administration): 48 min
clearance (Rat PK test; intravenous 0.1 mg/kg, 10 compounds cassette administration, read-out: CL total (converted)): 0.755 L/h/kg
Tmax (Rat PK test; oral 1 mg/kg, 5 compounds cassette administration): 60 min
number of HAPCs in the intestinal tract (Male beagle dogs): an increase in the number of HAPCs in the intestinal tract was observed
efflux ratio at 1 h, 10 μmol/L (MDR1): 15
number of feces 2 hr later (Male SD rats; 1 mg/kg orally): 14.8 ± 1.2
number of feces 2 hr later (Male SD rats; 3 mg/kg orally): 13.9 ± 2.1
pEC50 [1]: 9.51
